Data on 14 molecules can be found in paper PMC3806051 (Journal of the American Chemical Society, 2013).

Read-outs that look alike come from different tables or passages of the source.

Data set [1] can be described thus: Isomerization in binding assay medium. Type of data set: physicochemical.
Data set [2] has as its target recombinant human His-tagged MDM2 protein (residues 1–118) (Homo sapiens, UniProt Q00987). The data set can be described thus: FP-based competitive protein binding assay.
The nature of data set [3]: Interconversion of isomers in MeCN-H2O. Type of data set: physicochemical. The note with it: over a period of up to four days.
Where [4] appears, read: FP competitive binding to MDM2, incubation 15 min.
Where [5] appears, read: calculated from IC50, FP competitive binding to MDM2, incubation 15 min.

The term IC50 denotes the midpoint of a concentration-inhibition curve. As a reminder, the Ki is the dissociation constant of the complex between target and ligand, obtained from inhibition or displacement.

Consider `CN(C)C(=O)[C@@H]1N[C@@H](CC(C)(C)C)[C@@]2(C(=O)Nc3cc(Cl)ccc32)[C@H]1c1cccc(Cl)c1` [1b, (2′S,3R,4′R,5′R)-6-chloro-4′-(3-chlorophenyl)-N,N-dimethyl-2′-neopentyl-2-oxospiro[indoline-3,3′-pyrrolidine]-5′-carboxamide], for which, in data set [1] (binding assay medium, after 12 days), the “remaining of starting isomer” value was 93.9%.

As for `CNC(=O)[C@@H]1N[C@H](CC(C)(C)C)[C@]2(C(=O)Nc3cc(Cl)ccc32)[C@H]1c1cccc(Cl)c1` [2a, (2′R,3S,4′R,5′R)-6-chloro-4′-(3-chlorophenyl)-N-methyl-2′-neopentyl-2-oxospiro[indoline-3,3′-pyrrolidine]-5′-carboxamide], in data set [2], the IC50 was 565 ± 57 nM and the Ki was determined as 76.2 ± 7.7 nM.

Consider `CNC(=O)[C@@H]1N[C@@H](CC(C)(C)C)[C@@]2(C(=O)Nc3cc(Cl)ccc32)[C@H]1c1cccc(Cl)c1` [2b, (2′S,3R,4′R,5′R)-6-chloro-4′-(3-chlorophenyl)-N-methyl-2′-neopentyl-2-oxospiro[indoline-3,3′-pyrrolidine]-5′-carboxamide], for which, in data set [2], the IC50 turned out to be 30.9 ± 2.9 nM and the Ki turned out to be 3.1 ± 0.3 nM.

On to `CNC(=O)[C@@H]1N[C@H](CC(C)(C)C)[C@]2(C(=O)Nc3cc(Cl)ccc32)[C@H]1c1cccc(Cl)c1F` [4a, (2′R,3S,4′S,5′R)-6-chloro-4′-(3-chloro-2-fluorophenyl)-Nmethyl-2′-neopentyl-2-oxospiro[indoline-3,3′-pyrrolidine]-5′-carboxamide], for which the IC50 in data set [2] (setting [4]) is 387 ± 39 nM. The Ki in data set [2] (setting [5]) was 51.8 ± 4.2 nM.

As to `CNC(=O)[C@@H]1N[C@@H](CC(C)(C)C)[C@@]2(C(=O)Nc3cc(Cl)ccc32)[C@H]1c1cccc(Cl)c1F` [4b, (2′S,3R,4′S,5′R)-6-chloro-4′-(3-chloro-2-fluorophenyl)-Nmethyl-2′-neopentyl-2-oxospiro[indoline-3,3′-pyrrolidine]-5′-carboxamide], the IC50 in data set [2] (setting [4]) is 25.9 ± 1.5 nM. Also, the Ki in data set [2] (setting [5]) is 2.4 ± 0.2 nM. In data set [2] (cis-cis isomer b versus trans-cis isomer a), the “times more potent than the respective isomer a (binding to MDM2)” value was > 15 times.

On to `CC(C)(C)C[C@@H]1N[C@@H](C(=O)NCC[C@H](O)CO)[C@H](c2cccc(Cl)c2F)[C@@]12C(=O)Nc1cc(Cl)ccc12` [5c, (2′S,3S,4′S,5′R)-6-chloro-4′-(3-chloro-2-fluorophenyl)-N-((S)-3,4-dihydroxybutyl)-2′-neopentyl-2-oxospiro[indoline-3,3′-pyrrolidine]-5′-carboxamide], for which, in data set [1] (binding assay medium, within 30 min), the “isomerized into 5b” value is given as “approximately 20%”. For the same molecule, the “isomerization kinetics in binding assay medium” value in data set [1] (room temperature) is given as “very fast isomerization kinetics”. Besides, in data set [3], the “isomerization in CH3CN-H2O” value is “gradually converted into a mixture of four isomers”.

Regarding `CC(C)(C)C[C@H]1N[C@@H](C(=O)NCC[C@H](O)CO)[C@H](c2cccc(Cl)c2F)[C@]12C(=O)Nc1cc(Cl)ccc12` [5d, (2′R,3R,4′S,5′R)-6-chloro-4′-(3-chloro-2-fluorophenyl)-N-((S)-3,4-dihydroxybutyl)-2′-neopentyl-2-oxospiro[indoline-3,3′-pyrrolidine]-5′-carboxamide], the “isomerization in CH3CN-H2O” value in data set [3] is “gradually converted into a mixture of four isomers”.

For the molecule `CCOC(=O)[C@@H]1N[C@H](CC(C)(C)C)[C@]2(C(=O)Nc3cc(Cl)ccc32)[C@H]1c1cccc(Cl)c1F` [7a, (2′R,3S,4′S,5′R)-ethyl 6-chloro-4′-(3-chloro-2-fluorophenyl)-2′-neopentyl-2-oxospiro[indoline-3,3′-pyrrolidine]-5′-carboxylate], in data set [2], the IC50 was 19500 ± 4000 nM and the Ki was 2700 ± 500 nM.

With `CCOC(=O)[C@@H]1N[C@@H](CC(C)(C)C)[C@@]2(C(=O)Nc3cc(Cl)ccc32)[C@H]1c1cccc(Cl)c1F` [7b, (2′S,3R,4′S,5′R)-ethyl 6-chloro-4′-(3-chloro-2-fluorophenyl)-2′-neopentyl-2-oxospiro[indoline-3,3′-pyrrolidine]-5′-carboxylate], in data set [2], the IC50 turned out to be 721 ± 79 nM and the Ki was 97.5 ± 10.7 nM.

In the case of `CC(C)(C)C[C@H]1N[C@@H](C(=O)O)[C@H](c2cccc(Cl)c2F)[C@@]12C(=O)Nc1cc(Cl)ccc12` [8a, (2′R,3S,4′S,5′R)-6-chloro-4′-(3-chloro-2-fluorophenyl)-2′-neopentyl-2-oxospiro[indoline-3,3′-pyrrolidine]-5′-carboxylic acid], in data set [2], the IC50 stood at 498 ± 44 nM and the Ki was found to be 67 ± 5.9 nM.

Regarding `CC(C)(C)C[C@@H]1N[C@@H](C(=O)O)[C@H](c2cccc(Cl)c2F)[C@]12C(=O)Nc1cc(Cl)ccc12` [8b, (2′S,3R,4′S,5′R)-6-chloro-4′-(3-chloro-2-fluorophenyl)-2′-neopentyl-2-oxospiro[indoline-3,3′-pyrrolidine]-5′-carboxylic acid], in data set [2], the IC50 was determined as 55.1 ± 5.2 nM and the Ki was 6.4 ± 0.6 nM.

In the case of `CC(C)(C)C[C@@H]1N[C@@H](C(N)=O)[C@H](c2cccc(Cl)c2F)[C@]12C(=O)Nc1cc(Cl)ccc12` [9b, (2′S,3R,4′S,5′R)-6-chloro-4′-(3-chloro-2-fluorophenyl)-2′-neopentyl-2-oxospiro[indoline-3,3′-pyrrolidine]-5′-carboxamide], in data set [2], the IC50 was 22.5 ± 2.2 nM and the Ki was 1.9 ± 0.2 nM.

Regarding `CN(C)C(=O)[C@@H]1N[C@@H](CC(C)(C)C)[C@@]2(C(=O)Nc3cc(Cl)c(F)cc32)[C@H]1c1cccc(Cl)c1` [10b, (2′S,3R,4′R,5′R)-6-chloro-4′-(3-chlorophenyl)-5-fluoro-N,Ndimethyl-2′-neopentyl-2-oxospiro[indoline-3,3′-pyrrolidine]-5′-carboxamide], the IC50 in data set [2] (setting [4]) amounted to 835 ± 121 nM. Also, the Ki in data set [2] (setting [5]) is 113 ± 16 nM.

On to `CNC(=O)[C@@H]1N[C@@H](CC(C)(C)C)[C@@]2(C(=O)Nc3cc(Cl)c(F)cc32)[C@H]1c1cccc(Cl)c1` [11b, (2′S,3R,4′R,5′R)-6-chloro-4′-(3-chlorophenyl)-5-fluoro-Nmethyl-2′-neopentyl-2-oxospiro[indoline-3,3′-pyrrolidine]-5′-carboxamide], for which the IC50 in data set [2] (setting [4]) came to 112 ± 12 nM. Moreover, the Ki in data set [2] (setting [5]) is 14.2 ± 1.1 nM.
